Source: patent US20070099877A1, “N-aryl-thienopyrimidin-4-amines and analogs as activators of caspases and inducers of apoptosis and the use thereof” (Cytovia, Inc., priority 2005, published 2007)
pEC50: −log10 of the molar value. Where a name gives a salt, the structure may show the parent alone.

Assays:
Assay type in all cases: cell-based
[1] = system: murine leukemia cell line P388; test: Inhibition of cell proliferation (GI50) in P388 cells; settings: Mus musculus, Table IV, read-out: GI50 in Multi-Cancer Cells P388
Description: (§1) Human breast cancer cell lines T-47D, MX-1 and MDAMB435, human colon cancer cell line HT29, and human lung cancer cell line H1299 were grown and harvested as in Example 75. An aliquot of […] of cells (4.4×10^4 cells/mL) was added to a well of a 96-well microtiter plate containing 5 μL of a 10% DMSO in RPMI-1640 media solution containing 10 nM to 100 μM of N-(2,5-dimethoxyphenyl)-2-methylthieno[3,2-d]pyrimidin-4-amine (1 nM to 10 μM final). An aliquot of 45 μL of cells was added to a well of a 96-well microtiter plate containing 5 μL of a 10% DMSO in RPMI-1640 media solution without compound as the control sample for maximal cell proliferation (Lmax). The samples were mixed by agitation and then incubated at 37° C. for 48 h in a 5% CO2-95% humidity incubator. After incubation, the samples were removed from the incubator and 25 μL of CellTiter-Glo™ reagent (Promega) was added. The samples were mixed by agitation and incubated at room temperature for 10-15 min. Plates were then read using a luminescent plate reader (Model SPECTRAfluor Plus, Tecan) to give Ltest values.
(§2) Baseline for GI50 (dose for 50% inhibition of cell proliferation) of initial cell numbers was determined by adding an aliquot of 45 μL of cells or 45 μL of media, respectively, to wells of a 96-well microtiter plate containing 5 μL of a 10% DMSO in RPMI-1640 media solution. The samples were mixed by agitation and then incubated at 37° C. for 0.5 h in a 5% CO2-95% humidity incubator. After incubation, the samples were removed from the incubator and 25 μL of CellTiter-Glo™ reagent (Promega) was added. The samples were mixed by agitation and incubated at 37° C. for 10-15 min at room temperature in a 5% CO2-95% humidity incubator. Fluorescence was read as above, (LStart) defining luminescence for initial cell number used as baseline in GI50 determinations.
(§3) GI50 (dose for 50% inhibition of cell proliferation) is the concentration where [(LTest−Lstart)/(LMax−Lstart)]=0.5.
(§4) Several compounds were tested in multi cancer cell lines, including human breast cancer cell lines T-47D, MX-1, SKBR3 and MDAMB435, human hepatocellular carcinoma cell line SNU398, human colon carcinoma cell line HCT116, human sarcoma cell line MES-SA and multi-drug resistant (MDR) human sarcoma cell line MES-SA/ADR, murine leukemia cell line P388 and multi-drug resistant (MDR) murine leukemia cell line P388ADR, and the data are summarized in Table IV.

[2] = system: human colon cancer cell line HT29; test: Inhibition of cell proliferation (GI50) in HT29 cells; settings: HT-29, Table III, 48 h
Description: as §1, §2, §3

[3] = system: human hepatocellular carcinoma cell line SNU398; test: Caspase cascade activation in SNU398 cells; settings: Homo sapiens, SNU-398, 48 h, read-out: Caspase activation Potency EC50 SNU398 (48 h)
Method in brief: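 Cells were exposed to compound at 0.016 to 10 μM final for 24 h or 48 h at 37 °C. They were then lysed with 14 μM N-(Ac-DEVD)-N′-ethoxycarbonyl-R110 in lysolecithin/DTT/PIPES buffer pH 7.2 for 3 h at room temperature (ex 485/em 530 nm). EC50 came from a sigmoidal fit of net RFU relative to untreated control.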

[4] = system: multi-drug resistant (MDR) human sarcoma cell line MES-SA/ADR; test: Inhibition of cell proliferation (GI50) in MES-SA/ADR cells; settings: Table IV, read-out: GI50 in Multi-Cancer Cells MES-SA/ADR
Description: as §1, §2, §3, §4

[5] = system: human breast cancer cell line SKBR3; test: Inhibition of cell proliferation (GI50) in SKBR3 cells; settings: SK-BR-3, Table IV, read-out: GI50 in Multi-Cancer Cells SKBR3
Description: as §1, §2, §3, §4

[6] = system: human sarcoma cell line MES-SA; test: Inhibition of cell proliferation (GI50) in MES-SA cells; settings: Table IV, read-out: GI50 in Multi-Cancer Cells MES-SA
Description: as §1, §2, §3, §4

[7] = system: multi-drug resistant (MDR) murine leukemia cell line P388ADR; test: Inhibition of cell proliferation (GI50) in P388/ADR cells; settings: Mus musculus, Table IV, read-out: GI50 in Multi-Cancer Cells P388/ADR
Description: as §1, §2, §3, §4

[8] = system: breast cancer cell line SKBR3; test: Caspase cascade activation in SKBR3 cells; settings: Homo sapiens, SK-BR-3, 48 h, read-out: Caspase Activation Potency EC50 SKBR3
[9] = system: human Burkitt's lymphoma cell line Namalwa; test: Caspase cascade activation in Namalwa cells; settings: Burkitts lymphoma cell, 48 h, read-out: Caspase Activation Potency EC50 Namalwa

| GI50 [1] | GI50 [2] | pEC50 [3] | GI50 [4] | GI50 [5] | GI50 [6] | GI50 [7] | pEC50 [8] | pEC50 [9] | Compound |
| --- | --- | --- | --- | --- | --- | --- | --- | --- | --- |
| 2060 nM | 3630 nM | 5.79 | 7260 nM | 500 nM | 5190 nM | 2600 nM | – | – | COc1ccc(OC)c(Nc2ncnc3ccsc23)c1 [Example 2, N-(2,5-Dimethoxyphenyl)thieno[3,2-d]pyrimidin-4-amine] |
| 540 nM | – | 6.60 | 1200 nM | 60 nM | 364 nM | 296 nM | 7.11 | 6.45 | COc1cc(Nc2ncnc3ccsc23)cc(OC)c1 [Example 12, N-(3,5-Dimethoxyphenyl)thieno[3,2-d]pyrimidin-4-amine hydrochloride] |
